Experiments:
[1] = cytotoxicity to cultured tumor cell line HL60; details: human, hl60 cells, Suppression
Procedure: (§2) Cytotoxicity to various human tumor cell lines was examined as follows:
(§3) Cells of human cell lines, K562, MOLT4, U937 and HL60 were respectively suspended to the concentration of 4×10^5 cells/ml in the RPMI1640 culture medium supplemented with 20% FCS. Fifty μl of each suspension was added to each well of a 96-well microtest plate to which 50 μl of the test solution had been added. After culturing the suspension at 37° C. in an atmosphere of 5% carbon dioxide for 72 hours, the absorbancy at 570 nm was measured in the same way as with the colorimetry using MTT in Experiment Example 1, and the percent suppression was calculated by the following formula, which was used as an index of cytotoxicity.

HL60 = experiment: cytotoxicity to cultured tumor cell line HL60
Procedure: as §2, §3

[2] = tested on: IL-3 production in mouse allogenic MLC; experiment: suppression of IL-3 production in mouse allogenic MLC; format: cell-based; details: for inhibition at 0.0001 µg/mL / inhibition at 0.001 µg/mL / inhibition at 0.01 µg/mL / inhibition at 0.1 µg/mL / inhibition at 1 µg/mL: Mus musculus, 48 h
Procedure: Mouse allogenic MLC was carried out as follows:
After termination of culture, the supernatant was collected and used as the supernatant of mouse allogenic MLC.

[3] = tested on: anti-sheep red blood cell antibody production; experiment: suppression of mouse anti-sheep red blood cell antibody production; format: in vivo; details: for Body weight at 4 days later / Body weight on immunized day / Number of PFC per 1 × 10^7 cell / Number of PFC per spleen / Number of spleen cells / Suppression of number of PFC per 1 × 10^7 cell / Suppression of number of PFC per spleen / Wet weight of spleen / Wet weight of thymus: 4 days
Procedure: Male 5- to 7-week-old BALB/c mice were immunized with sheep red blood cells (5×10^7 cells/mouse, intravenous administration), and the test substance was administered intraperitoneally at the dose of 3 to 10 mg/kg/day for 4 consecutive days from the day of immunization. Four days after immunization, the spleen was resected, and suppression of anti-sheep red blood cell antibody production was examined by counting the number of plaque-forming cells (PFC) by direct plaque method using sheep red blood cells and guinea pig complement. At the same time, the body weight of the mouse, wet weight of the thymus and the spleen, and the number of spleen cells were also determined.

[4] = cytotoxicity to cultured tumor cell line U937; format: cell-based, human; details: human, u937 cells, read-out: Suppression
Procedure: as §2, §3

[5] = tested on: IL-1 response of mouse thymocytes; experiment: suppression of the IL-1 response of mouse thymocytes; format: cell-based; details: IL-1 50 U/ml
Procedure: The thymus was resected from 6-week-old male C3H/HeN mice, and a single cell suspension was prepared using the serum-free RPMI1640 culture medium. After washing three times, the cell suspension was adjusted to a concentration of 1.5×10^7 cells/ml in the RPMI1640 culture medium supplemented with 10^-4 M 2-mercaptoethanol and 20% FCS. […] After termination of culture, 18.5 KBq/well of ^3 H-thymidine was added thereto. After culturing the suspension for further 18 hours, the cells were harvested by a cell harvester, and the radioactivity incorporated into the cells was measured by a liquid scintillation counter, which was used as an index of IL-1, IL-2 or IL-4 response. The suppression of IL-1, IL-2 or IL-4 response was evaluated by calculating the percent suppression by the following formula. [formula]

[6] = tested on: IL-2 response of mouse thymocytes; experiment: suppression of the IL-2 response of mouse thymocytes; format: cell-based; details: for inhibition at 0.0001 µg/mL / inhibition at 0.001 µg/mL / inhibition at 0.01 µg/mL / inhibition at 0.1 µg/mL / inhibition at 1 µg/mL: Mus musculus, Thymocyte, 72 h
Procedure: (§1) The thymus was resected from 6-week-old male C3H/HeN mice, and a single cell suspension was prepared using the serum-free RPMI1640 culture medium. After washing three times, the cell suspension was adjusted to a concentration of 1.5×10^7 cells/ml in the RPMI1640 culture medium supplemented with 10^-4 M 2-mercaptoethanol and 20% FCS. […] After culturing the suspension for further 18 hours, the cells were harvested by a cell harvester, and the radioactivity incorporated into the cells was measured by a liquid scintillation counter, which was used as an index of IL-1, IL-2 or IL-4 response. The suppression of IL-1, IL-2 or IL-4 response was evaluated by calculating the percent suppression by the following formula. [formula]

[7] = tested on: IL-4 response of mouse thymocytes; experiment: suppression of the IL-4 response of mouse thymocytes; format: cell-based; details: for inhibition at 0.0001 µg/mL / inhibition at 0.001 µg/mL / inhibition at 0.01 µg/mL / inhibition at 0.1 µg/mL / inhibition at 1 µg/mL: Mus musculus, Thymocyte, 72 h
Procedure: as §1

SMILES: CCCCCCCCCCCCCCCC[C@@H](O)[C@H](O)[C@@](N)(CO)C(=O)O [Example 2]
- cytotoxicity at 72 h ([1]; 0.1 μg/ml): 7%
- cytotoxicity at 72 h ([1]; 1 μg/ml): 1.6%
- cytotoxicity at 72 h ([1]; 10 μg/ml): 3.3%
- Absorbancy (HL60; 0.1 μg/ml): 1.385 ± 0.066
- Absorbancy (HL60; 1 μg/ml): 1.466 ± 0.126
- Absorbancy (HL60; 10 μg/ml): 1.441 ± 0.018
- IL-3 activity ([2]; 0.0001 μg/ml): 42.8 U/ml
- IL-3 activity ([2]; 0.001 μg/ml): 45.3 U/ml
- IL-3 activity ([2]; 0.01 μg/ml): 42.2 U/ml
- IL-3 activity ([2]; 0.1 μg/ml): 23.6 U/ml
- IL-3 activity ([2]; 1 μg/ml): 11.0 U/ml
- inhibition at 0.0001 µg/mL ([2]; 0.0001 μg/ml): 16.3%
- inhibition at 0.001 µg/mL ([2]; 0.001 μg/ml): 9.9%
- inhibition at 0.01 µg/mL ([2]; 0.01 μg/ml): 17.9%
- inhibition at 0.1 µg/mL ([2]; 0.1 μg/ml): 65.3%
- inhibition at 1 µg/mL ([2]; 1 μg/ml): 97.4%
- Body weight at 4 days later ([3]; 3 mg/kg/day ip): 24 ± 1 g
- Body weight on immunized day ([3]; 3 mg/kg/day ip): 22 ± 1 g
- Number of PFC per 1 × 10^7 cell ([3]; 3 mg/kg/day ip): 5.5 ± 0.8 × 10^3 /1 × 10^7 cell
- Number of PFC per spleen ([3]; 3 mg/kg/day ip): 17.9 ± 3.6 × 10^4 /spleen
- Number of spleen cells ([3]; 3 mg/kg/day ip): 3.3 ± 0.5 × 10^8 cell
- Suppression of number of PFC per 1 × 10^7 cell ([3]; 3 mg/kg/day ip): 36.8%
- Suppression of number of PFC per spleen ([3]; 3 mg/kg/day ip): 23.2%
- Wet weight of spleen ([3]; 3 mg/kg/day ip): 58 ± 11 mg
- Wet weight of thymus ([3]; 3 mg/kg/day ip): 318 ± 42 mg
- Body weight at 4 days later ([3]; 10 mg/kg/day ip): 23 ± 1 g
- Body weight on immunized day ([3]; 10 mg/kg/day ip): 22 ± 1 g
- Number of PFC per 1 × 10^7 cell ([3]; 10 mg/kg/day ip): 4.0 ± 2.0 × 10^3 /1 × 10^7 cell
- Number of PFC per spleen ([3]; 10 mg/kg/day ip): 10.2 ± 5.5 × 10^4 /spleen
- Number of spleen cells ([3]; 10 mg/kg/day ip): 2.5 ± 0.2 × 10^8 cell
- Suppression of number of PFC per 1 × 10^7 cell ([3]; 10 mg/kg/day ip): 54.9%
- Suppression of number of PFC per spleen ([3]; 10 mg/kg/day ip): 56.2%
- Wet weight of spleen ([3]; 10 mg/kg/day ip): 58 ± 10 mg
- Wet weight of thymus ([3]; 10 mg/kg/day ip): 233 ± 25 mg
- effect on anti-sheep red blood cell antibody production (in words) ([3]; ip): exhibits suppressive effect on anti-sheep red blood cell antibody production
- cytotoxicity at 72 h ([4]; 1 μg/ml): 0.1%
- cytotoxicity at 72 h ([4]; 10 μg/ml): 1.3%
- cytotoxicity at 72 h ([4]; 0.1 μg/ml): 1.9%

SMILES: CCCCCCCCCCCCC/C=C/C[C@@H](O)[C@H](O)[C@@](N)(CO)C(=O)O [Example 5]
- cytotoxicity at 72 h ([1]; 0.1 μg/ml): 0%
- cytotoxicity at 72 h ([1]; 1 μg/ml): 5%
- cytotoxicity at 72 h ([1]; 10 μg/ml): 19.4%
- Absorbancy (HL60; 0.1 μg/ml): 1.505 ± 0.035
- Absorbancy (HL60; 1 μg/ml): 1.415 ± 0.010
- Absorbancy (HL60; 10 μg/ml): 1.201 ± 0.061
- IL-3 activity ([2]; 0.0001 μg/ml): 32.7 U/ml
- IL-3 activity ([2]; 0.001 μg/ml): 19.2 U/ml
- IL-3 activity ([2]; 0.01 μg/ml): 11.5 U/ml
- IL-3 activity ([2]; 0.1 μg/ml): 7.9 U/ml
- IL-3 activity ([2]; 1 μg/ml): 7.9 U/ml
- inhibition at 0.0001 µg/mL ([2]; 0.0001 μg/ml): 42.1%
- inhibition at 0.001 µg/mL ([2]; 0.001 μg/ml): 76.5%
- inhibition at 0.01 µg/mL ([2]; 0.01 μg/ml): 96.2%
- inhibition at 0.1 µg/mL ([2]; 0.1 μg/ml): 100%
- inhibition at 1 µg/mL ([2]; 1 μg/ml): 100%
- cytotoxicity at 72 h ([4]; 0.1 μg/ml): 0%
- 3H-thymidine uptake ([5]; 0.0001 μg/ml): 10320 ± 1490 cpm
- 3H-thymidine uptake ([5]; 0.001 μg/ml): 7756 ± 686 cpm
- 3H-thymidine uptake ([5]; 0.01 μg/ml): 1239 ± 548 cpm
- 3H-thymidine uptake ([5]; 0.1 μg/ml): 595 ± 144 cpm
- 3H-thymidine uptake ([5]; 1 μg/ml): 419 ± 36 cpm
- inhibition at 0.0001 µg/mL ([5]; Mus musculus, Thymocyte, 72 h, 0.0001 μg/ml): 11.3%
- inhibition at 0.001 µg/mL ([5]; Mus musculus, Thymocyte, 72 h, 0.001 μg/ml): 33.7%
- inhibition at 0.01 µg/mL ([5]; Mus musculus, Thymocyte, 72 h, 0.01 μg/ml): 90.7%
- inhibition at 0.1 µg/mL ([5]; Mus musculus, Thymocyte, 72 h, 0.1 μg/ml): 96.3%
- inhibition at 1 µg/mL ([5]; Mus musculus, Thymocyte, 72 h, 1 μg/ml): 97.8%
- 3H-thymidine uptake ([6]; 0.0001 μg/ml, IL-2 10 U/ml): 2810 cpm
- 3H-thymidine uptake ([6]; 0.0001 μg/ml, IL-2 50 U/ml): 63715 cpm
- 3H-thymidine uptake ([6]; 0.001 μg/ml, IL-2 10 U/ml): 1660 cpm
- 3H-thymidine uptake ([6]; 0.001 μg/ml, IL-2 50 U/ml): 57600 cpm
- 3H-thymidine uptake ([6]; 0.01 μg/ml, IL-2 10 U/ml): 1285 cpm
- 3H-thymidine uptake ([6]; 0.01 μg/ml, IL-2 50 U/ml): 32955 cpm
- 3H-thymidine uptake ([6]; 0.1 μg/ml, IL-2 10 U/ml): 1125 cpm
- 3H-thymidine uptake ([6]; 0.1 μg/ml, IL-2 50 U/ml): 24600 cpm
- 3H-thymidine uptake ([6]; 1 μg/ml, IL-2 10 U/ml): 1300 cpm
- 3H-thymidine uptake ([6]; 1 μg/ml, IL-2 50 U/ml): 25525 cpm
- inhibition at 0.0001 µg/mL ([6]; 0.0001 μg/ml, IL-2 10 U/ml): 0%
- inhibition at 0.0001 µg/mL ([6]; 0.0001 μg/ml, IL-2 50 U/ml): 0%
- inhibition at 0.001 µg/mL ([6]; 0.001 μg/ml, IL-2 10 U/ml): 46.7%
- inhibition at 0.001 µg/mL ([6]; 0.001 μg/ml, IL-2 50 U/ml): 4.5%
- inhibition at 0.01 µg/mL ([6]; 0.01 μg/ml, IL-2 10 U/ml): 62.1%
- inhibition at 0.1 µg/mL ([6]; 0.1 μg/ml, IL-2 10 U/ml): 68.6%
- inhibition at 0.1 µg/mL ([6]; 0.1 μg/ml, IL-2 50 U/ml): 59.4%
- inhibition at 1 µg/mL ([6]; 1 μg/ml, IL-2 10 U/ml): 61.5%
- inhibition at 1 µg/mL ([6]; 1 μg/ml, IL-2 50 U/ml): 58%
- inhibition at 0.01 µg/mL ([6]; 0.01 μg/ml, IL-2 50 U/ml): 45.5%
- 3H-thymidine uptake ([7]; 0.0001 μg/ml, IL-4 50 U/ml): 3190 cpm
- 3H-thymidine uptake ([7]; 0.0001 μg/ml, IL-4 250 U/ml): 45895 cpm
- 3H-thymidine uptake ([7]; 0.001 μg/ml, IL-4 50 U/ml): 2025 cpm
- 3H-thymidine uptake ([7]; 0.001 μg/ml, IL-4 250 U/ml): 39150 cpm
- 3H-thymidine uptake ([7]; 0.01 μg/ml, IL-4 50 U/ml): 1385 cpm
- 3H-thymidine uptake ([7]; 0.01 μg/ml, IL-4 250 U/ml): 33515 cpm
- 3H-thymidine uptake ([7]; 0.1 μg/ml, IL-4 50 U/ml): 815 cpm
- 3H-thymidine uptake ([7]; 0.1 μg/ml, IL-4 250 U/ml): 24655 cpm
- 3H-thymidine uptake ([7]; 1 μg/ml, IL-4 50 U/ml): 885 cpm
- 3H-thymidine uptake ([7]; 1 μg/ml, IL-4 250 U/ml): 21250 cpm
- inhibition at 0.0001 µg/mL ([7]; 0.0001 μg/ml, IL-4 50 U/ml): 0%
- inhibition at 0.0001 µg/mL ([7]; 0.0001 μg/ml, IL-4 250 U/ml): 13.1%
- inhibition at 0.001 µg/mL ([7]; 0.001 μg/ml, IL-4 50 U/ml): 8%
- inhibition at 0.001 µg/mL ([7]; 0.001 μg/ml, IL-4 250 U/ml): 26%
- inhibition at 0.01 µg/mL ([7]; 0.01 μg/ml, IL-4 50 U/ml): 40.6%
- inhibition at 0.01 µg/mL ([7]; 0.01 μg/ml, IL-4 250 U/ml): 36.8%
- inhibition at 0.1 µg/mL ([7]; 0.1 μg/ml, IL-4 50 U/ml): 69.7%
- inhibition at 1 µg/mL ([7]; 1 μg/ml, IL-4 50 U/ml): 66.2%
- inhibition at 1 µg/mL ([7]; 1 μg/ml, IL-4 250 U/ml): 60.2%
- inhibition at 0.1 µg/mL ([7]; 0.1 μg/ml, IL-4 250 U/ml): 46.3%

Reference: patent US5068247A, “2-aminopentanoic acid compounds and their use as immunosuppressants” (priority 1989, dated 1991)
